Article PMC3523701 (Journal of the American Chemical Society, 2012)

Tested on: SRC
Format: binding
Conditions: competitor against photo-probe labeling, Figure S1

Row | SMILES | competition of active site labeling of SRC
1 | CNC(=O)c1cc(Oc2ccc(NC(=O)Nc3cc(C(C)(C)C)nn3-c3ccc4ncccc4c3)c(F)c2)ccn1 [Rebastinib, reference compound] | able to block active site labeling
2 | Cc1ccc(C(=O)Nc2ccc(CN3CCN(C)CC3)c(C(F)(F)F)c2)cc1C#Cc1cnc2cccnn12 [Ponatinib, reference compound] | able to block active site labeling
